Measured values reported in patent publication US20100168228A1, “NOVEL CHEMOTHERAPEUTIC AGENTS AGAINST INFLAMMATION AND CANCER” (RELIANCE LIFE SCIENCES PVT. LTD., priority 2006, published 2010).

Columns and labels:
[1] = test system: Jurkat cells; assay: Measurement of reactive oxygen intermediates (ROI) by flow cytometry; format: cell-based, human; details: pretreated 1 h, TNF 1 nM 4 h
Experimental: The production of ROI in cells treated with TNFα or LPS was determined by flow cytometer as described by (Manna, S. K. et. al., J. Immunol. (1999) 162(3):1510-1518). Briefly Jurkat cells (5×10^5 cells in one ml) were incubated either with RPMI 1640 medium supplemented with 10% FBS or with complete media containing different concentrations of CAMVE for 1 h at 37° C. Cells were then stimulated with 1 nM of TNF for 4 h. After incubation, the cells were washed with D-PBS, and resuspended in 1 ml D-PBS. To detect ROI production, cells were exposed to Dihydrorhodamine 123 (5 mM stock) at a final concentration of 1 μM for 1 hr at 37° C. with moderate shaking (100 rpm) and then washed with D-PBS three times and resuspended in 1 ml of D-PBS. Rhodamine 123 fluorescence intensity resulting from Dihydrorhodamine 123 oxidation was measured by FACS Calibur (Becton Dickinson) with excitation at 488 nm and was detected between […]. Data was analyzed using Cell Quest software (Becton Dickinson).

[2] = test system: NF-κB; assay: NF-κB activation assay, HeLa; format: cell-based, human; details: 15 μM 3 h, 0.1 nM TNF 30 min
Experimental: (§1) FIG. 4: Effect of CAMVE on NF-κB activation in different cell lines. A. HeLa, MCF-7, U937, were incubated at 37° C. for 3 h with 15 μM dose of CAMVE and then stimulated with 0.1 nM TNF for 30 min. After these treatments, nuclear extracts were prepared and assayed for NF-κB using BD Transfactor ELISA method. B. RAW 264.7 cells pretreated with indicated doses of CAMVE were stimulated with 100 ng/ml LPS for 30 min and assayed for NF-κB activation.
(§2) Cell pellet was resuspended in lysis buffer (10 mM HEPES, pH 7.9, 1.5 mM MgCl2, 10 mM KCl, 1 mM PMSF, 1 mMDTT, 0.5% NP 40, 0.1 mM EGTA and 0.1 mM EDTA) and allowed to swell on ice for 15 min, followed by centrifugation at 3300×g for 20 min. The cell pellet was resuspended in a volume of lysis buffer equal to the cell pellet volume. The cell suspension was slowly drawn down into a syringe and ejected the content in a single stroke. Disrupted cells were incubated for 15 min on ice, and the disrupted cell suspension was centrifuged at 10,000×g for 20 min at 4° C. […]
(§3) The assay was performed by using wells coated with oligonucleotides having the consensus DNA binding sites for the specific transcription factors. […] Bound transcription factor was detected by a specific Primary Antibody. […] After addition of the substrate, the Absorbance was recorded at 655 nm.

[3] = test system: NF-κB; assay: NF-κB activation assay, MCF-7; format: cell-based, human; details: MCF-7, 15 μM 3 h, 0.1 nM TNF 30 min
Experimental: as §1, §2, §3

[4] = test system: NF-κB; assay: NF-κB activation assay, U937; format: cell-based, human; details: U937, 15 μM 3 h, 0.1 nM TNF 30 min
Experimental: as §1, §2, §3

[5] = test system: U937; assay: Cytotoxicity (MTT) in different human tumor cell lines; format: cell-based; details: 30 μM, 72 h
Experimental: FIG. 9: CAMVE induces differential cytotoxicity in different human tumor cell lines. Different human tumor cell lines were cultured either in the presence or absence of CAMVE (30 μM) for 72 h. The MTT assay was done and absorbance taken at 570 nm. The result indicated are mean O.D. of triplicate culture.
Cytotoxicity was assayed by the modified tetrazolium salt 3-(4,5-dimethylthiazol-2-yl)-2,5-diphenyltetrazolium bromide (MTT) assay as described by Plumb, J A et al. (Cancer Res. 1989 Aug. 15; 49(16):4435-4440).

[6] = test system: Jurkat cells; assay: DNA fragmentation assay, Jurkat; format: cell-based, human; details: 24 h
Experimental: DNA fragmentation Assay: After treatment with the compounds for 24 h, cells were harvested and washed in PBS. The cell pellet was incubated with lysis buffer (10 mM Tris-HCl pH 7.5, 1 mM EDTA, 1% SDS and 80 ug/ml proteinase K) at 37° C. overnight. After extraction with phenol/chloroform, the DNA was precipitated with 100% ethanol and then dissolved in Tris-EDTA buffer (pH 8.0) with RNase A at 37° C. The DNA estimation was performed by taking absorbance at 260/280 nm, and DNA was resolved in a 1.8% agarose gel, stained with ethidium bromide and visualized under a UV transilluminator.

[7] = test system: U937 cells; assay: Cell cycle analysis, U937; format: cell-based, human; details: 24 h
Experimental: FIG. 17: Differential effect of compound 27 on the cell cycle distribution in U937 cell line. Cells were treated with different concentration of the compound for 24 h and after staining with PI, cell cycle distribution was analyzed using Flow Cytometer. The data indicates the percentage of cells in each phase of the cell cycle.
Cell Cycle Analysis: Cells (log phase culture) were treated with vehicles alone (similar volumes of DMSO) or with the compound (various concentrations) to be tested for 24 h. Untreated cells were also included in this experiment for comparison. After treatments, the cells were harvested and washed with cold PBS. Cells were then resuspended in cold PBS (300 μl) and 100% chilled ethanol (700 μl), vortexed, and incubated at room temperature for 1 h. Samples were centrifuged at 200×g for 5 minutes and the supernatant was removed. A solution containing propidium iodide (100 μg/ml) and RNase A (1 mg/ml) was added to the samples and incubated for 1 h at room temperature. Samples were then transferred to 12×75 mm polystyrene tubes and analyzed on flow cytometer. Flow cytometry analyses were done on FACSCalibur (Becton Dickinson, San Jose, Calif.) and data were analyzed using CellQuest analysis software.

Row | SMILES | TNF induced ROI generation [1] | TNF-induced NF-κB activation [2] | TNF-induced NF-κB activation [3] | TNF-induced NF-κB activation [4] | CAMVE mediated cell death (MTT), sensitivity among tumor cell lines [5] | DNA fragmentation (agarose gel) [6] | sub G1 population ([7]; U937, 10 μM) | proportion of cells in the S phase ([7]; U937, 5 and 10 μM, increase from-to) | proportion of cells in the G2/M phase ([7]; U937, 100, 500, 5000, 10000 nM) | sub G1 population ([7]; U937, 100 and 500 nM)
1 | COC(=O)c1ccc(OC(=O)/C=C/c2ccc(O)c(O)c2)c(OC)c1 [compound 1, Methyl 4-{[(2E)-3-(3,4-dihydroxyphenyl)prop-2-enoyl]oxy}-3-methoxybenzoate] | suppressed on pretreatment of cells with CAMVE in a dose dependent fashion | blocks TNF-induced NF-κB activation | blocks TNF-induced NF-κB activation | blocks TNF-induced NF-κB activation | most sensitive to CAMVE treatment |  |  |  |  | 
2 | COc1cc([C@@H]2Oc3c(OC)cc(/C=C/C(=O)O)cc3[C@H]2C(=O)O)ccc1O [compound 27, 5-[(E)-2-carboxyvinyl]-2β-(4-hydroxy-3-methoxyphenyl)-7-methoxy-2,3-dihydro-1-benzofuran-3α-carboxylic acid] |  |  |  |  |  | typical ladder pattern of internucleosomal fragmentation | ~30% | 26%-35% | no significant increase in the proportion of cells in the G2/M phase | no increase
